Patent US12649727B2, “EFGR inhibitor, preparation method therefor and application thereof” (Abbisko Therapeutics Co., Ltd, priority 2020, dated 2026)

How the values were obtained:
Format in all cases: cell-based
[1] = biological target: Ba/F3 EGFR-D770-N771ins_SVD (Homo sapiens, UniProt P00533, DUP768-770, cells depend on it); experiment: Proliferation experiment of Ba/F3 cell line, EGFR-D770-N771ins_SVD (CellTiter-Glo); settings: cultured for 72 hrs with compound, CTG analysis, read-out: Ba/F3 EGFR-D770-N771ins_SVD IC50
Chain of Ba/F3 EGFR-D770-N771ins_SVD (P00533 with tags, fused parts or gaps DUP768-770): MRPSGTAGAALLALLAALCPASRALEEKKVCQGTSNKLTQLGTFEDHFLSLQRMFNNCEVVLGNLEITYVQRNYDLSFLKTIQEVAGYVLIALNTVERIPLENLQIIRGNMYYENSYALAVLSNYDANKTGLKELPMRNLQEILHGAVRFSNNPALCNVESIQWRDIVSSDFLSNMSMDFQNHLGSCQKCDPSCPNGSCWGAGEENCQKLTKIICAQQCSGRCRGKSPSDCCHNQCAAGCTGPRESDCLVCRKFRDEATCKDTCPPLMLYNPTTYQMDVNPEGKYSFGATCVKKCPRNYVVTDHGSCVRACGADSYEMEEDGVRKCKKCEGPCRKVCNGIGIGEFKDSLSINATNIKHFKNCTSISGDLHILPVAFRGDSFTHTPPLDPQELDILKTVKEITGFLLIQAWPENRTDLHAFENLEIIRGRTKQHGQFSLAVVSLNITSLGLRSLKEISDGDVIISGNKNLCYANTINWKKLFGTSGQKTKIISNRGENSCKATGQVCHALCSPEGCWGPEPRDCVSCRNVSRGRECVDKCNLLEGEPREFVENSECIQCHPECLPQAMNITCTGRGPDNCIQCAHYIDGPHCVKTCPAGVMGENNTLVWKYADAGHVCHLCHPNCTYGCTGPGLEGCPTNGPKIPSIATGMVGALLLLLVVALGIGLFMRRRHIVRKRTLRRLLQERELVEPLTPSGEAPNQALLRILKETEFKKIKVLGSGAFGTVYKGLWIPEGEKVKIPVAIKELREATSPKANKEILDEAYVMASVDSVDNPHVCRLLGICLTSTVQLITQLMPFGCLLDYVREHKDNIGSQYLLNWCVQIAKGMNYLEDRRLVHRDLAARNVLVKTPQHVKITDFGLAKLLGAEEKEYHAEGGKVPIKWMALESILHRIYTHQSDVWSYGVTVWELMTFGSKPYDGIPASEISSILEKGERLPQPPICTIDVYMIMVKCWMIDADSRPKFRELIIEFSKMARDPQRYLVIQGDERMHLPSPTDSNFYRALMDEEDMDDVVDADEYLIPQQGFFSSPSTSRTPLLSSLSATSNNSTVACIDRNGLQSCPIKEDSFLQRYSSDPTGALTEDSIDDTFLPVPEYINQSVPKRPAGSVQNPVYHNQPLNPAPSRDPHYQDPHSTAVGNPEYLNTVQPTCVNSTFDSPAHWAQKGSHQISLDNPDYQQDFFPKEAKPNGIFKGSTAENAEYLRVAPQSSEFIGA
How it was run: (§1)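 […] Ba/F3 cells expressing EGFR insertion mutants treated 72 h at 37 °C with 9 concentrations, 3.16-fold dilutions, top 10 μM, 0.1% DMSO, in triplicate. Viability by CellTiter-Glo luminescence with T0 reference plate; IC50 (nM) from non-linear dose-response fit.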

[2] = system: A431 (EGFR-WT); experiment: Proliferation experiment, A431 cell line (CellTiter-Glo); settings: Homo sapiens, A-431; A431 cells, cultured for 72 hrs with compound, CTG analysis
[3] = biological target: Ba/F3 EGFR-V769_D770insASV (Homo sapiens, UniProt P00533, DUP767-769, cells depend on it); experiment: Proliferation experiment of Ba/F3 cell line, EGFR-V769_D770insASV (CellTiter-Glo); settings: cultured for 72 hrs with compound, CTG analysis, read-out: Ba/F3 EGFR-V769_D770insASV IC50
Chain of Ba/F3 EGFR-V769_D770insASV (P00533 with tags, fused parts or gaps DUP767-769): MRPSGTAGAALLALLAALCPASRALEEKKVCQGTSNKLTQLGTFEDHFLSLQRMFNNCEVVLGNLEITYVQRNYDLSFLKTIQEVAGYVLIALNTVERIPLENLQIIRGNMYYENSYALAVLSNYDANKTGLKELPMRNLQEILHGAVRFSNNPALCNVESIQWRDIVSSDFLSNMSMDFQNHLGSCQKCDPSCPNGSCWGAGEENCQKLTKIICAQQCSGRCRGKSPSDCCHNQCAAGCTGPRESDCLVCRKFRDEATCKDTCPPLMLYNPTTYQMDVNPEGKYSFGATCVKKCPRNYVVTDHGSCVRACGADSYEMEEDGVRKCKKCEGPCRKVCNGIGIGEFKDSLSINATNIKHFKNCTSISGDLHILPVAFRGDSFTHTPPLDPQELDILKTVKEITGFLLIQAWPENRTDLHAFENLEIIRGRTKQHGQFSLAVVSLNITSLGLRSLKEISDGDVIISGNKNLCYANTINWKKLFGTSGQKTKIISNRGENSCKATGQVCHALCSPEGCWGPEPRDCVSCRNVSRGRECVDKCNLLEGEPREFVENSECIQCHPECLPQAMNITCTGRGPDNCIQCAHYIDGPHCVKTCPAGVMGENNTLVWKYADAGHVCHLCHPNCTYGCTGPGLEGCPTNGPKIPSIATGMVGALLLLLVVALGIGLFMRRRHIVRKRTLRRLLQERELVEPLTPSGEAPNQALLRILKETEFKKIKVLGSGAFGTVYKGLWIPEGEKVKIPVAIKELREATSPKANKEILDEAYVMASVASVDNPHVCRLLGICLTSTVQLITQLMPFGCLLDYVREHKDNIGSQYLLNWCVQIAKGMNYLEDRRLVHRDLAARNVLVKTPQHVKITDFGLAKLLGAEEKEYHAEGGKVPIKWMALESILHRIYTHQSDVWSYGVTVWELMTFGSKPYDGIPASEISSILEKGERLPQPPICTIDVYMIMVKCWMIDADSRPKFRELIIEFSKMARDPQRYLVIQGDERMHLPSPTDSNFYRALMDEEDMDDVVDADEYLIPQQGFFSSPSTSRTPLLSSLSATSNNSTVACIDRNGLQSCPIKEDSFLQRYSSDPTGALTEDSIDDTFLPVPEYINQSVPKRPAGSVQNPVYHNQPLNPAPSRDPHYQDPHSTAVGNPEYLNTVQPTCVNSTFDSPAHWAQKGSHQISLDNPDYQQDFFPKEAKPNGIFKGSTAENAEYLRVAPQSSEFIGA
How it was run: as §1

GI50 [1] [nM] | IC50 [2] [nM] | GI50 [3] [nM] | SMILES
3.2 | 41 | 3.8 | C=CC(=O)Nc1cc2c(Nc3ccnc(-c4ccc(F)cc4F)c3)ncnc2cc1OCCCN1CCOCC1 [Example 78, N-(4-((2-(2,4-difluorophenyl)pyridin-4-yl)amino)-7-(3-morpholinopropoxy)quinazolin-6-yl)acrylamide]
30 | 15 | 6.1 | C=C(F)C(=O)Nc1cc2c(Nc3ccnc(-c4ccccc4F)c3)ncnc2cc1N1CCC(N2CCN(C)CC2)CC1 [Example 103, 2-fluoro-N-(4-((2-(2-fluorophenyl)pyridin-4-yl)amino)-7-(4-(4-methylpiperazin-1-yl)piperidin-1-yl)quinazolin-6-yl)acrylamide]
25.2 | 238 | 28.4 | C=CC(=O)Nc1cc2c(Nc3cccc(-c4ccc(F)cc4F)c3)ncnc2cc1OCCCN1CCN(C)CC1 [Example 7, N-(4-((2′,4′-difluoro-[1,1′-biphenyl]-3-yl)amino)-7-(3-(4-methylpiperazin-1-yl)propoxy)quinazolin-6-yl)acrylamide]
1.6 | 317 | 4.4 | C=CC(=O)Nc1cc2c(Nc3ccnc(-c4ccc(F)cc4F)c3)ncnc2cc1OCCN1CCOCC1 [Example 77, N-(4-((2-(2,4-difluorophenyl)pyridin-4-yl)amino)-7-(2-morpholinoethoxy)quinazolin-6-yl)acrylamide]
36.5 | 252 | 53.9 | C=CC(=O)Nc1cc2c(Nc3cc(-c4ccc(F)cc4F)ccc3F)ncnc2cc1OCCCN1CCN(C)CC1 [Example 20, N-(7-(3-(4-methylpiperazin-1-yl)propoxy)-4-((2′,4,4′-trifluoro-[1,1′-biphenyl]-3-yl)amino)quinazolin-6-yl)acrylamide]
2.8 | 315 | 6.1 | C=CC(=O)Nc1cc2c(Nc3ccnc(-c4ccccc4F)c3)ncnc2cc1N1CCC(N2CCN(C)CC2)CC1 [Example 99, N-(4-((2-(2-fluorophenyl)pyridin-4-yl)amino)-7-(4-(4-methylpiperazin-1-yl)piperidin-1-yl)quinazolin-6-yl)acrylamide]
26.1 | 518 | 90.9 | C=CC(=O)Nc1cc2c(Nc3cccc(-c4ncc(F)cc4F)c3)ncnc2cc1OCCCN1CCOCC1 [Example 17, N-(4-((3-(3,5-difluoropyridin-2-yl)phenyl)amino)-7-(3-morpholinopropoxy)quinazolin-6-yl)acrylamide]
13.7 | 270 | 30.6 | C=CC(=O)Nc1cc2c(Nc3cccc(-c4c(F)cccc4F)c3)ncnc2cc1OCCCN1CCN(C(C)C)CC1 [Example 22, N-(4-((2′,6′-difluoro-[1,1′-biphenyl]-3-yl)amino)-7-(3-(4-isopropylpiperazin-1-yl)propoxy)quinazolin-6-yl)acrylamide]
15 | 372 | 25.4 | C=CC(=O)Nc1cc2c(Nc3ccc(F)c(-c4c(F)cccc4F)c3)ncnc2cc1OCCCN1CCN(C)CC1 [Example 40, N-(7-(3-(4-methylpiperazin-1-yl)propoxy)-4-((2′,6,6′-trifluoro-[1,1′-biphenyl]-3-yl)amino)quinazolin-6-yl)acrylamide]
56.1 | 498 | 137 | C=CC(=O)Nc1cc2c(Nc3cccc(-c4ccc(F)cc4F)c3)ncnc2cc1OCCCN1CCC(F)(F)C1 [Example 15, N-(4-((2′,4′-difluoro-[1,1′-biphenyl]-3-yl)amino)-7-(3-(3,3-difluoropyrrolidin-1-yl)propoxy)quinazolin-6-yl)acrylamide]
19.2 | 927 | 36.5 | C=CC(=O)Nc1cc2c(Nc3ccc(F)c(-c4ccc(F)cc4)c3)ncnc2cc1OCCCN1CCOCC1 [Example 41, N-(4-((4′,6-difluoro-[1,1′-biphenyl]-3-yl)amino)-7-(3-morpholinopropoxy)quinazolin-6-yl)acrylamide]
13.9 | 83 | 29.3 | C=CC(=O)Nc1cc2c(Nc3cccc(-c4ncccc4F)c3)ncnc2cc1OCCCN1CCN(C)CC1 [Example 44, N-(4-((3-(3-fluoropyridin-2-yl)phenyl)amino)-7-(3-(4-methylpiperazin-1-yl)propoxy)quinazolin-6-yl)acrylamide]
2.9 | 104 | 9.1 | C=CC(=O)Nc1cc2c(Nc3ccnc(-c4ccccc4F)c3)ncnc2cc1O[C@@H]1CCN(CC)C1 [Example 124, (R)-N-(7-((1-ethylpyrrolidin-3-yl)oxy)-4-((2-(2-fluorophenyl)pyridin-4-yl)amino)quinazolin-6-yl)acrylamide]
6.1 | 733 | 17 | C=C(F)C(=O)Nc1cc2c(Nc3ccnc(-c4ccccc4F)c3)ncnc2cc1N1CCC(N2CCOCC2)CC1 [Example 102, 2-fluoro-N-(4-((2-(2-fluorophenyl)pyridin-4-yl)amino)-7-(4-morpholinopiperidin-1-yl)quinazolin-6-yl)acrylamide]
27.8 | 284 | 49.3 | C=CC(=O)Nc1cc2c(Nc3ccc(F)c(-c4ncccc4F)c3)ncnc2cc1OCCCN1CCN(C)CC1 [Example 43, N-(4-((4-fluoro-3-(3-fluoropyridin-2-yl)phenyl)amino)-7-(3-(4-methylpiperazin-1-yl)propoxy)quinazolin-6-yl)acrylamide]
11.4 | 341 | 22.3 | C=CC(=O)Nc1cc2c(Nc3cccc(-n4cccn4)c3)ncnc2cc1OCCCN1CCN(C)CC1 [Example 53, N-(4-((3-(1H-pyrazol-1-yl)phenyl)amino)-7-(3-(4-methylpiperazin-1-yl)propoxy)quinazolin-6-yl)acrylamide]

SMILES | GI50 [1] [nM] | IC50 [2] [nM] | GI50 [3] [nM]
C=CC(=O)Nc1cc2c(Nc3ccnc(-c4ccccc4F)c3)ncnc2cc1O[C@@H]1CCN(CCO)C1 [Example 112, (R)—N-(4-((2-(2-fluorophenyl)pyridin-4-yl)amino)-7-((1-(2-hydroxyethyl)pyrrolidin-3-yl)oxy)quinazolin-6-yl)acrylamide] | 1.4 | 89.3 | 3.6
